Data published in patent publication US4505929A, “Sulfur-substituted diphenyl ethers having antiviral activity” (The Dow Chemical Company, priority 1982, dated 1985).
In brackets after ≈: the same amount, converted by molar mass. Where two headings read alike, the source gives them in different places.

Assays:
Format in all cases: cell-based
[1] = test system: Coxsackie A21 virus (Cox A21); experiment: Tissue culture antiviral test (HeLa cells), Cox A21; details: 48 and 72 hours post-treatment, read-out: Lowest concentration necessary to cause a 50 percent reduction in cytopathic effect, Cox A21
Description: (§1) Monolayered HeLa cells in 16 millimeter (mm) tissue culture dishes were treated with 1 ml of culture medium (Eagles medium supplemented with fetal calf serum) containing subject compound at an appropriate concentration or containing no compound at all. Culture media such as those described herein are more fully described in standard texts, as for example, Kuchler's Biochemical Methods in Cell Culture and Virology, Dowden, Hutchinson and Ross, Inc., Stroudsberg, PA (1977). Following treatment, cells were challenged with 0.05 ml of rhinovirus type 1A (RV-1A), rhinovirus type 2 (RV-2) or Coxsackie A21 virus (Cox A21) in culture medium. Some of the compounds were also tested against rhinovirus type 5 (RV-5), rhinovirus type 8 (RV-8) or rhinovirus type 64 (RV-64). Cell controls received no viruses.
(§2) ^xx Lowest concentration of the compound (μg/ml) necessary to caus
(§3) a 50 percent reduction in cytopathic effect.

[2] = test system: rhinovirus type 1A (RV-1A); experiment: Tissue culture antiviral test (HeLa cells), RV-1A; details: Enterovirus, 48 and 72 hours post-treatment, read-out: Lowest concentration necessary to cause a 50 percent reduction in cytopathic effect, RV-1A
Description: as §1, §2, §3

[3] = Cytotoxicity to HeLa cells in tissue culture testing; details: human
Description: as §1
^x Cytotoxicity figures represent the concentration of the compound,
micrograms/milliliter (μg/ml) found to be toxic to the cell.
means "approximately "; "<<" "considerably less than " and "G.I." means

rhinovirus type 2 (RV-2) = experiment: Tissue culture antiviral test (HeLa cells), RV-2; details: Enterovirus, 48 and 72 hours post-treatment, read-out: Lowest concentration necessary to cause a 50 percent reduction in cytopathic effect, RV-2
Description: as §1, §2, §3

[4] = test system: rhinovirus type 64 (RV-64); experiment: Tissue culture antiviral test (HeLa cells), RV-64; details: Enterovirus, 48 and 72 hours post-treatment, read-out: Lowest concentration necessary to cause a 50 percent reduction in cytopathic effect, RV-64
Description: as §1, §2, §3

rhinovirus type 8 (RV-8) = experiment: Tissue culture antiviral test (HeLa cells), RV-8; details: Enterovirus, 48 and 72 hours post-treatment, read-out: Lowest concentration necessary to cause a 50 percent reduction in cytopathic effect, RV-8
Description: as §1, §2, §3

rhinovirus type 5 (RV-5) = experiment: Tissue culture antiviral test (HeLa cells), RV-5; details: Enterovirus, 48 and 72 hours post-treatment, read-out: Lowest concentration necessary to cause a 50 percent reduction in cytopathic effect, RV-5
Description: as §1, §2, §3

[5] = G.I. = growth inhibition: at the concentration shown the compound inhibited growth of the tissue culture, read-out: Cytotoxicity (G.I.)
[6] = concentration found to be toxic to the cell, observed at 48 and 72 hours, read-out: Cytotoxicity

| SMILES | EC50 [1] [µg/mL] | EC50 [2] [µg/mL] | MCC [3, 5] [µg/mL] | EC50 (rhinovirus type 2 (RV-2)) [µg/mL] | EC50 [4] [µg/mL] | EC50 (rhinovirus type 8 (RV-8)) [µg/mL] | EC50 (rhinovirus type 5 (RV-5)) [µg/mL] | MCC [3, 6] [µg/mL] |
| --- | --- | --- | --- | --- | --- | --- | --- | --- |
| CS(=O)(=O)c1ccc(Oc2ccc(Cl)cc2)cc1 [Example 2, 4-(4-(Methylsulfonyl)phenoxy)-1-chlorobenzene] | 0.625 (≈ 2.21 µM) | 1.25 (≈ 4.42 µM) | 10 | 1.25 (≈ 4.42 µM) | – | – | – | – |
| CC(=O)c1ccc(Oc2ccc(S(C)(=O)=O)cc2)cc1 [Example 3, 1-(4-(4-(Methylsulfonyl)phenoxy)phenyl)ethanone] | < 6.25 | 25 (≈ 86.1 µM) | – | 12.5 (≈ 43.1 µM) | < 6.25 | 25 (≈ 86.1 µM) | 25 (≈ 86.1 µM) | 50 |
| CS(=O)(=O)c1ccc(Oc2ccc(C(=O)c3ccccc3)cc2)cc1 [Example 4, (4-(4-(Methylsulfonyl)phenoxy)phenyl)phenylmethanone] | < 6.25 | – | – | 50 (≈ 142 µM) | 100 (≈ 284 µM) | – | – | > 100 |
| CSc1ccc(Oc2ccc(C#N)cc2)cc1 [Example 5, 4-(4-(Methylthio)phenoxy)benzonitrile] | < 3.12 | < 3.12 | – | < 3.12 | – | – | – | 6.25 |
| C[S+]([O-])c1ccc(Oc2ccc(Cl)c(Cl)c2)cc1 (centres unmarked) [Example 6, 1,2-Dichloro-4-(4-(methylsulfinyl)phenoxy)benzene] | – | < 0.31 | – | < 0.31 | < 0.31 | – | – | 12.5 |
| C[S+]([O-])c1ccc(Oc2ccc(C#N)cc2)cc1 (centres unmarked) [Example 7, 4-(4-(Methylsulfinyl)phenoxy)benzonitrile] | 3.12 (≈ 12.1 µM) | 3.12 (≈ 12.1 µM) | – | 3.12 (≈ 12.1 µM) | – | – | – | 25 |
| CS(=O)(=O)c1ccc(Oc2ccc(C#N)cc2)cc1 [Example 8, 4-(4-(Methylsulfonyl)phenoxy)benzonitrile] | < 6.25 | 12.5 (≈ 45.7 µM) | – | 12.5 (≈ 45.7 µM) | 12.5 (≈ 45.7 µM) | 25 (≈ 91.5 µM) | 12.5 (≈ 45.7 µM) | 50 |
| CS(=O)(=O)c1ccc(Oc2ccc(Br)cc2)cc1 [Example 9, 1-Bromo-4-(4-(methylsulfonyl)phenoxy)benzene] | < 3.12 | < 3.12 | – | < 3.12 | – | 12.5 (≈ 38.2 µM) | 12.5 (≈ 38.2 µM) | 12.5 |
| O=S(=O)(c1ccccc1)c1ccc(Oc2ccc(Cl)c(Cl)c2)cc1 [Example 10, 4-(4-(Phenylsulfonyl)phenoxy)-1,2-dichlorobenzene] | 6.25 (≈ 16.5 µM) | – | – | 6.25 (≈ 16.5 µM) | – | – | – | 50 |
| CN(C)S(=O)(=O)c1ccc(Oc2ccc(S(=O)(=O)c3ccccc3)cc2)cc1 [Example 11, N,N-Dimethyl-4-(4-(phenylsulfonyl)phenoxy)benzenesulfonamide] | 0.625 (≈ 1.5 µM) | 0.625 (≈ 1.5 µM) | – | 0.625 (≈ 1.5 µM) | – | – | – | 1.25 |
| CN(C)S(=O)(=O)c1ccc(Oc2ccc(S(C)(=O)=O)cc2)cc1 [Example 12, N,N-Dimethyl-4-(4-(methylsulfonyl)phenoxy)benzenesulfonamide] | 50 (≈ 141 µM) | – | 100 | – | – | – | – | – |
| CCN(CC)S(=O)(=O)c1ccc(Oc2ccc(S(C)(=O)=O)cc2)cc1 [Example 13, N,N-Diethyl-4-(4-(methylsulfonyl)phenoxy)benzenesulfonamide] | 25 (≈ 65.2 µM) | 50 (≈ 130 µM) | 100 | – | – | – | – | – |
| CS(=O)(=O)c1ccc(Oc2ccc(Cl)c(Cl)c2)c(Cl)c1 [Example 14, 4-(2-Chloro-4-(methylsulfonyl)phenoxy)-1,2-dichlorobenzene] | 12.5 (≈ 35.5 µM) | 12.5 (≈ 35.5 µM) | – | ≤ 6.25 | – | – | – | 50 |
| CS(=O)(=O)c1ccc(Oc2ccc(Cl)c(Cl)c2)c([N+](=O)[O-])c1 [Example 15, 4-(4-(Methylsulfonyl)-2-nitrophenoxy)-1,2-dichlorobenzene] | – | – | – | 6.25 (≈ 17.3 µM) | – | – | – | > 100 |
| CS(=O)(=O)c1ccc(Oc2ccc(Cl)c(Cl)c2)c(N)c1 [Example 16, 2-(3,4-Dichlorophenoxy)-5-(methylsulfonyl)benzenamine] | 6.25 (≈ 18.8 µM) | < 6.25 | – | 6.25 (≈ 18.8 µM) | – | – | – | ≤ 6.25 |
